# Results from ChEMBL document CHEMBL5291721, “A preclinical secondary pharmacology resource illuminates target-adverse drug reaction associations of marketed drugs” (Nat Commun, 2023).
# Experiments:
# [1] = target: T1, Alpha-2A adrenergic receptor (Homo sapiens, UniProt P08913); type: functional, cell-based
# T1 sequence (P08913 whole entry): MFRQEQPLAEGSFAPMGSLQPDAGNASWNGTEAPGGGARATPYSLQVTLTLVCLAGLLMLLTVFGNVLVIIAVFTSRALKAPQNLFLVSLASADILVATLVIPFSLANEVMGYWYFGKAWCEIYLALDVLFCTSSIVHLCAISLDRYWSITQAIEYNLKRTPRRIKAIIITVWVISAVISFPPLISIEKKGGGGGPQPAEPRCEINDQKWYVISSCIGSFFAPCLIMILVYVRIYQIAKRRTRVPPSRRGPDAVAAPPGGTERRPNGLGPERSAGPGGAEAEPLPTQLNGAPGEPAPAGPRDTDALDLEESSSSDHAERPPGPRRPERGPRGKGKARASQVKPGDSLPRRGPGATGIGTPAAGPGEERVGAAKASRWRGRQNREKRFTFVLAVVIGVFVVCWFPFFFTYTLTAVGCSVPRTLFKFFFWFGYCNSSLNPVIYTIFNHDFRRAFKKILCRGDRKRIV
# [2] = target: T2, Gastrin/cholecystokinin type B receptor (Homo sapiens, UniProt P32239)
# T2 sequence (P32239 whole entry): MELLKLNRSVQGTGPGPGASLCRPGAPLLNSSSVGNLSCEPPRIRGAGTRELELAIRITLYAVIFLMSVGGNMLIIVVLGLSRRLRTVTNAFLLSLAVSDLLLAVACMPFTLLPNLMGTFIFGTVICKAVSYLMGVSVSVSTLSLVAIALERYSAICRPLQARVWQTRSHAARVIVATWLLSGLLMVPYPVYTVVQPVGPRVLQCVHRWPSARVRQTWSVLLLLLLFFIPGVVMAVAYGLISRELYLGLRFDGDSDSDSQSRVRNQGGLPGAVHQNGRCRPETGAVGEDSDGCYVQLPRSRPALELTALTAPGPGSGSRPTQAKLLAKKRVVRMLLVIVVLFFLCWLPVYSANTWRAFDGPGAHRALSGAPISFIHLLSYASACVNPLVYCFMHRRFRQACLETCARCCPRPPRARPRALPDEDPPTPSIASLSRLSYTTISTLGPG
# D(1A) dopamine receptor = D(1A) dopamine receptor (Homo sapiens, UniProt P21728); type: functional, cell-based
# [3] = target: Gamma-aminobutyric acid receptor subunit alpha-1 (Rattus norvegicus, UniProt P62813); type: functional
# Melanocortin receptor 3 = Melanocortin receptor 3 (Homo sapiens, UniProt P41968)
# Glucocorticoid receptor = target: T3, Glucocorticoid receptor (Homo sapiens, UniProt P04150)
# T3 sequence (P04150 whole entry): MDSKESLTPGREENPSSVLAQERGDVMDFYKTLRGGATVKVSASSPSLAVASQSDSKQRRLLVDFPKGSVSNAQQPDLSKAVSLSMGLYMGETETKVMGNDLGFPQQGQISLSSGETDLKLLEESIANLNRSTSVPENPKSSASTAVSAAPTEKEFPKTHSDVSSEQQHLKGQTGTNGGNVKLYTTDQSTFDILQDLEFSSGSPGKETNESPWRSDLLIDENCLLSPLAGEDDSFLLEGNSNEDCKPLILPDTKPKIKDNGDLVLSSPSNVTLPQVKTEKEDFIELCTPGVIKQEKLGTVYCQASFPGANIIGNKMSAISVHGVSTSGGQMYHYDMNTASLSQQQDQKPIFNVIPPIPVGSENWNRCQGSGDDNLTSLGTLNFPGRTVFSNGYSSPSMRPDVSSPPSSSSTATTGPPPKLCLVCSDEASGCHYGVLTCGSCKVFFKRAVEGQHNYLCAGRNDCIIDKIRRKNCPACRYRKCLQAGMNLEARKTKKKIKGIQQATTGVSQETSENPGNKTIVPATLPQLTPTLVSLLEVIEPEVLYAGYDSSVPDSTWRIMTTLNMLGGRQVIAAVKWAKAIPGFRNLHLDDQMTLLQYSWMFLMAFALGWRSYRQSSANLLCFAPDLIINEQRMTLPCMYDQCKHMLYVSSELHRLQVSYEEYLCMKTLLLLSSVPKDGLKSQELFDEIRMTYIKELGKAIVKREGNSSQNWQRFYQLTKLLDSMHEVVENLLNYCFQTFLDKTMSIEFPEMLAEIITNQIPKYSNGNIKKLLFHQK
# [4] = target: 3',5'-cyclic-AMP phosphodiesterase 4D (Homo sapiens, UniProt Q08499); type: functional
# Progesterone receptor = target: T4, Progesterone receptor (Homo sapiens, UniProt P06401); type: functional
# T4 sequence (P06401 whole entry): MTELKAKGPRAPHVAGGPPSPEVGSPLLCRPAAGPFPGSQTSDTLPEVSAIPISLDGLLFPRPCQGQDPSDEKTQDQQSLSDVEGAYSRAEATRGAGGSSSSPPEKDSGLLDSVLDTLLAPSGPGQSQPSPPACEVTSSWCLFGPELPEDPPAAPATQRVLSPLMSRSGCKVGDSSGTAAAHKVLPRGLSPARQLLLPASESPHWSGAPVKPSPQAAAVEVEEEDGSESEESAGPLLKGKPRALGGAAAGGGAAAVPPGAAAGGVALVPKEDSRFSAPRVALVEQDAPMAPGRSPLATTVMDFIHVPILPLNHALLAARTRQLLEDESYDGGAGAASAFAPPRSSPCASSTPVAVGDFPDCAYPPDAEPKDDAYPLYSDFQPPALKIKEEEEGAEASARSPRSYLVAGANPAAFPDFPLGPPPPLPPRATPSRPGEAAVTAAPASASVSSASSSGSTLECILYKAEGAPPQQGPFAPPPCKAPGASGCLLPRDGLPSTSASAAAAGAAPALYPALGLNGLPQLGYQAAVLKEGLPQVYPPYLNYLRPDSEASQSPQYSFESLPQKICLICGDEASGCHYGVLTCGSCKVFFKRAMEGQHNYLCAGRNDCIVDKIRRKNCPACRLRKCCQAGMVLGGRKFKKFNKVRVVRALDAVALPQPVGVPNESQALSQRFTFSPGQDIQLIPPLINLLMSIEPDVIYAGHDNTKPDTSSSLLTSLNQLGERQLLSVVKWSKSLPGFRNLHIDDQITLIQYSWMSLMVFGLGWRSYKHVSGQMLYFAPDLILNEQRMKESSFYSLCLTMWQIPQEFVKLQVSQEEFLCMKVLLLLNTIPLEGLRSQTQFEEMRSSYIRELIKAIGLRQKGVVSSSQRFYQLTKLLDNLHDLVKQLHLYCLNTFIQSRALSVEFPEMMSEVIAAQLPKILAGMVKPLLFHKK
# [5] = target: Sodium-dependent dopamine transporter (Homo sapiens, UniProt Q01959)
# Further: assay procedure not described here.
# Chain of Sodium-dependent dopamine transporter (Q01959 whole entry): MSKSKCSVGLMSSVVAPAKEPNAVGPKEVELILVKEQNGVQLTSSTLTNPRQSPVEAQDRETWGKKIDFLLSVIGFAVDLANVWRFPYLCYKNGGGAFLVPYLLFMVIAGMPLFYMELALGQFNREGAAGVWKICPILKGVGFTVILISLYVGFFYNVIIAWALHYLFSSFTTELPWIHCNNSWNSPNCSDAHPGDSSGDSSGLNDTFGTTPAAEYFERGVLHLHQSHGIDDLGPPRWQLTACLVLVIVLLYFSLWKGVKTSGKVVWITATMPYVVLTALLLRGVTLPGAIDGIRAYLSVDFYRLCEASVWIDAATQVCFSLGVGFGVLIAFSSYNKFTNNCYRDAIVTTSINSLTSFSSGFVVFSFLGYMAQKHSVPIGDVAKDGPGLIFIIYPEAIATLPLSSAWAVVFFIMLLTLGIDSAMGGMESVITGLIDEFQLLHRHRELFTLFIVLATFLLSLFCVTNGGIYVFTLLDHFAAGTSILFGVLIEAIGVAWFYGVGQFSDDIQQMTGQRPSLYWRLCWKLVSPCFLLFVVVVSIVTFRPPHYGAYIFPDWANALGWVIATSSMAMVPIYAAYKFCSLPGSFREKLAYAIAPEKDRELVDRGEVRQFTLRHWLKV
# Chain of Melanocortin receptor 3 (P41968 whole entry): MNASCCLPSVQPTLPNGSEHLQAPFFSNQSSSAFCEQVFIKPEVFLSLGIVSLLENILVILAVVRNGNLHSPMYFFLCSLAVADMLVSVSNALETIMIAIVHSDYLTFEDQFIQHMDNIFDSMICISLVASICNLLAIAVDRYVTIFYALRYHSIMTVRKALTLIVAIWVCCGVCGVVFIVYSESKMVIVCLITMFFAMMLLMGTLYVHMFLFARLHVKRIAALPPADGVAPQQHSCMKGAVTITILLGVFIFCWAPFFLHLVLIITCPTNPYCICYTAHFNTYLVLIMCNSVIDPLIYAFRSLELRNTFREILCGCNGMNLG
# Chain of D(1A) dopamine receptor (P21728 whole entry): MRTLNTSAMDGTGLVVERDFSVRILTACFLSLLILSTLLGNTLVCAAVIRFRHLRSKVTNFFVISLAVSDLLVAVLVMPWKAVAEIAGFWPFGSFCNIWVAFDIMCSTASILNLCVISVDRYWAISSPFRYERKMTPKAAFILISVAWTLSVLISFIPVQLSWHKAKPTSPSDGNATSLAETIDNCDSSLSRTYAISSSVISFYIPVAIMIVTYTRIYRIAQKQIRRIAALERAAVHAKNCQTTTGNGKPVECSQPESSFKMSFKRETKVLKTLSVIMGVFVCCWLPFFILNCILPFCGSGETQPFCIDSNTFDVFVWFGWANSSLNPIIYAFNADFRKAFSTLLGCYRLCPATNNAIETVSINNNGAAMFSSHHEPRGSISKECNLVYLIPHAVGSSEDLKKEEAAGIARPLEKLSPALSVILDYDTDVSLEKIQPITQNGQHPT
# Chain of 3',5'-cyclic-AMP phosphodiesterase 4D (Q08499 whole entry): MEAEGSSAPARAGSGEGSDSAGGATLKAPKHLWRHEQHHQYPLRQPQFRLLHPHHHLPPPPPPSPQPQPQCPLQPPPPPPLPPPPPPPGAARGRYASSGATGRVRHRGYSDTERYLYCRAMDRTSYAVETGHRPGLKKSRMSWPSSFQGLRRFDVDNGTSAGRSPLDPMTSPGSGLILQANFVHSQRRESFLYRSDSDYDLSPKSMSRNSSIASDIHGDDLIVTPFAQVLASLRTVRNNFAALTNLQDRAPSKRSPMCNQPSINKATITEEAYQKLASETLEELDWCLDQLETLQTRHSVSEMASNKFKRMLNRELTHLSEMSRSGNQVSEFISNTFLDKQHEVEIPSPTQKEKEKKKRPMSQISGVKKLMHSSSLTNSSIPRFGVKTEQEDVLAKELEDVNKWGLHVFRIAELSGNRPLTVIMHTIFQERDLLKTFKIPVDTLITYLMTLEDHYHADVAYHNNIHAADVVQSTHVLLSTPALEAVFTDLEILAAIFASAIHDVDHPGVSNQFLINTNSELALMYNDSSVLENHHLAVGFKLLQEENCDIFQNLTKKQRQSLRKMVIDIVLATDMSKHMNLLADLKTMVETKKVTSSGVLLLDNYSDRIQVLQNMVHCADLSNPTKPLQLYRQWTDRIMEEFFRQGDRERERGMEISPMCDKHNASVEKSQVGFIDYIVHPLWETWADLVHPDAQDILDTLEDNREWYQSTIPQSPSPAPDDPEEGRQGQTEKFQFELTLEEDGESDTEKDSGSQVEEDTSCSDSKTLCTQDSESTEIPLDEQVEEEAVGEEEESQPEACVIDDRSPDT
# Chain of Gamma-aminobutyric acid receptor subunit alpha-1 (P62813 whole entry): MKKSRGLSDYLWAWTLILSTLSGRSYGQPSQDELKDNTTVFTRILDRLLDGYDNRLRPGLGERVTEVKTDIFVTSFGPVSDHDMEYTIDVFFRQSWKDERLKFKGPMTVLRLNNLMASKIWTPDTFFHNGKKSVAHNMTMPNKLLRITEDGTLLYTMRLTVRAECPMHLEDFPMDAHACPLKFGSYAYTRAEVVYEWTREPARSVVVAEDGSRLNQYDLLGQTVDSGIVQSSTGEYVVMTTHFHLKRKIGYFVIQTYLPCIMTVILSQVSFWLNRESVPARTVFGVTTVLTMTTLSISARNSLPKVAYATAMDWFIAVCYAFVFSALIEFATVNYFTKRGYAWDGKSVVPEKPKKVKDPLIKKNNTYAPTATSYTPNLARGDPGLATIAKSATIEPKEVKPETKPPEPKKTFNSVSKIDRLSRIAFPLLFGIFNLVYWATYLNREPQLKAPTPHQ
Compound,AC50 [1] [µM],AC50 [2] [µM],AC50 (D(1A) dopamine receptor) [µM],AC50 [3] [µM],AC50 (Melanocortin receptor 3) [µM],AC50 (Glucocorticoid receptor) [µM],AC50 [4] [µM],AC50 (Progesterone receptor) [µM],AC50 [5] [µM]
COc1ccc2c(c1)c(CC(=O)OCC(=O)O)c(C)n2C(=O)c1ccc(Cl)cc1 [ACEMETACIN],> 30,> 10,> 30,> 30,> 30,> 30,> 30,> 30,> 30
CC(C)c1c(C(=O)Nc2ccccc2)c(-c2ccccc2)c(-c2ccc(F)cc2)n1CC[C@@H](O)C[C@@H](O)CC(=O)O [ATORVASTATIN],> 10,> 30,,> 10,> 30,,> 30,,
CN1C(=O)COc2c(C(=O)NC3CN4CCC3CC4)cc(Cl)cc21 (centres undefined) [AZASETRON],> 10,> 30,> 30,> 30,> 30,,4.1,> 30,> 30
Cc1cc2c(OCC(CNC(C)(C)C)OC(=O)c3ccccc3)cccc2[nH]1 (centres undefined) [BOPINDOLOL],> 30,> 30,> 30,> 30,> 30,> 30,> 30,> 30,12
CCCCN1CCCCC1C(=O)Nc1c(C)cccc1C (centres undefined) [BUPIVACAINE],> 30,> 30,> 30,> 30,> 30,,> 30,> 30,> 30
CC(C)(Oc1ccc(C2CC2(Cl)Cl)cc1)C(=O)O (centres undefined) [CIPROFIBRATE],> 30,> 30,> 30,> 30,> 30,> 30,> 30,> 30,> 30
COC(=O)[C@H]1[C@@H](OC(=O)c2ccccc2)C[C@@H]2CC[C@H]1N2C [COCAINE],> 30,> 30,> 30,> 30,> 30,,> 30,> 30,
Cc1c(O)c(=O)ccn1C [DEFERIPRONE],> 30,> 30,> 30,> 30,> 30,> 30,> 30,> 30,> 30
CN[C@@H](C)[C@H](O)c1ccccc1 [EPHEDRINE],> 10,> 30,> 10,> 10,> 30,> 30,> 30,,> 10
CCNC(C)Cc1cccc(C(F)(F)F)c1 (centres undefined) [FENFLURAMINE],,> 30,,> 10,> 30,> 30,> 30,,
COc1c(N2CCNC(C)C2)c(F)cc2c(=O)c(C(=O)O)cn(C3CC3)c12 (centres undefined) [GATIFLOXACIN],> 10,,> 30,> 10,> 10,> 10,> 30,> 10,> 10
CCN1CCC[C@H]1CNC(=O)c1cc(S(N)(=O)=O)ccc1OC [LEVOSULPIRIDE],> 10,> 30,> 30,> 10,> 30,> 30,> 30,,> 30
CC/C=C\C/C=C\C/C=C\CCCCCCCC(=O)O [LINOLENIC ACID],> 30,> 30,> 30,> 30,> 30,,> 30,,> 30
COc1ccccc1OCC(O)COC(N)=O (centres undefined) [METHOCARBAMOL],> 10,,> 10,> 10,> 10,> 30,> 30,> 30,> 10
C[C@]12CCC(=O)C=C1CC[C@@H]1[C@@H]2CC[C@@]2(C)[C@H]1CC[C@]2(C)O [METHYLTESTOSTERONE],> 30,> 30,> 30,> 30,> 30,0.44,> 30,,> 30
NC(=O)C[S+]([O-])C(c1ccccc1)c1ccccc1 (centres undefined) [MODAFINIL],> 10,> 30,> 10,> 10,21.2,> 30,> 30,,
CCN(CC)CCOC(=O)c1ccc(N)cc1 [PROCAINE],> 10,> 30,> 10,> 10,> 30,,> 10,,> 30
C#CCN[C@@H]1CCc2ccccc21 [RASAGILINE],> 30,> 30,> 30,> 30,> 30,,> 30,> 30,> 30
C#CCN(C)[C@H](C)Cc1ccccc1 [SELEGILINE],> 10,,> 10,> 10,> 10,> 10,> 30,> 10,> 10
CN[C@@H]1[C@H](O)[C@H](NC)[C@H]2O[C@@]3(O)C(=O)C[C@@H](C)O[C@H]3O[C@@H]2[C@H]1O [SPECTINOMYCIN],> 10,,> 10,> 10,> 10,> 10,> 30,> 10,> 10
